Assays:
Assay type in all cases: physicochemical
[1] = Stability in SIF (Simulated Intestinal Fluid), ester content by UPLC; details: SIF pH 6.8, 10 mg/mL in ACN diluted to 0.5 mg/mL, pinacol and pinanediol esters with 20%-30% final ACN
Procedure: (§1) The diluted solution was then analyzed for ester content by UPLC.
(§2) The same set of experiments were performed for the pinacol and pinanediol esters of Boronic Acid 1 except that additional ACN was added when diluting into SIF in order to maintain the compounds in solution (final ACN concentration of 20%-30% in diluted solutions in SIF).

[2] = Open dish stability study at 40° C./75% RH in open glass vials; details: for % Peak Area by UPLC, 2 weeks / % Peak Area by UPLC, Initial: 40° C./75% RH open; for Open dish stability, result in words: 40° C./75% RH, open glass vials
[3] = Stability in SGF (Simulated Gastric Fluid), ester content by UPLC; details: SGF pH 1.2, 10 mg/mL in ACN diluted to 0.5 mg/mL
Procedure: as §1, §2

Row | SMILES | Conversion of ester to Boronic Acid 1 in SIF [1] | % Peak Area by UPLC, 2 weeks [2] | % Peak Area by UPLC, Initial [2] | Open dish stability, result in words [2] | Conversion of ester to Boronic Acid 1 in SGF [3]
1 | C[C@@H]1CN(C(C)(C)C=C(C#N)C(=O)N2CCCC[C@@H](OC(=O)N[C@@H](Cc3ccccc3)B3OC(C)(C)C(C)(C)O3)C2)CCO1 [Pinacol ester of Boronic Acid 1, (R)-1-(2-cyano-4-methyl-4-((R)-2-methylmorpholino)pent-2-enoyl)azepan-3-yl ((R)-2-phenyl-1-(4,4,5,5-tetramethyl-1,3,2-dioxaborolan-2-yl)ethyl)carbamate] | completely converted to Boronic Acid 1 immediately | 70.9% | 95.5% | significantly degraded after two weeks | completely converted to Boronic Acid 1 immediately
2 | C[C@@H]1CN(C(C)(C)/C=C(\C#N)C(=O)N2CCCC[C@@H](OC(=O)N[C@@H](Cc3ccccc3)B(O)O)C2)CCO1 [Boronic Acid 1, ((R)-1-(((((R)-1-((E)-2-cyano-4-methyl-4-((R)-2-methylmorpholino)pent-2-enoyl)azepan-3-yl)oxy)carbonyl)amino)-2-phenylethyl)boronic acid] | – | 85.9% | 95.8% | significantly degraded after two weeks | –
3 | C[C@@H]1CN(C(C)(C)/C=C(\C#N)C(=O)N2CCCC[C@@H](OC(=O)N[C@@H](Cc3ccccc3)B3O[C@@H]4C[C@@H]5C[C@@H](C5(C)C)[C@]4(C)O3)C2)CCO1 [Pinanediol ester of Boronic Acid 1] | only partially converted to Boronic Acid 1 | 90.6% | 93.5% | significantly degraded after two weeks | only partially converted to Boronic Acid 1
